Literature values in US8414913B2, “Edible compositions for lowering cholesterol” (Raisio Benecol Oy, priority 2001, dated 2013).

System: total and low density lipoprotein (LDL) cholesterol level
Conditions: diets with high β-glucan content; Ripsin et al. 1992, Braaten et al. 1994

In the case of β-glucan, the “lowering of total and LDL cholesterol level” value is given as 8-12%.
